Test results as given in patent publication US20240158446A1, “CYCLIC COMPOUND HAVING SELECTIVE INHIBITORY ACTION ON KRAS OVER HRAS AND NRAS” (CHUGAI SEIYAKU KABUSHIKI KAISHA, priority 2021, published 2024).
Read-outs that look alike come from different tables or passages of the source. Where a SMILES comes first, the peptide text is derived from it. Bridges are numbered along the chain shown (N, C = ends). [ ]: non-standard residue; d: D form. The star is where a group is joined. hPhe(3-Cl-4-CF3) = N[C@@H](CCc1ccc(C(F)(F)F)c(Cl)c1)C(=O)O; NPrPhe(4-CF3) = CCCN[C@@H](Cc1ccc(C(F)(F)F)cc1)C(=O)O; NMeGly(cPent) = CN[C@H](C(=O)O)C1CCCC1; NMeD = CN[C@@H](CC(=O)O)C(=O)O; NMeL = CN[C@@H](CC(C)C)C(=O)O; Pyrrolidide = C1CCN(*)C1; Ac5c = NC1(C(=O)O)CCCC1; Sar = CNCC(=O)O

How the values were obtained:
[1] = biological target: GDP-bound KRAS wild-type protein (Homo sapiens, UniProt P01116); assay: Binding to KRAS by surface plasmon resonance (SPR), Single Cycle Kinetics; conditions: GDP-bound KRAS wild-type protein, read-out: KRAS KD
[2] = biological target: GDP-bound NRAS wild-type protein (Homo sapiens, UniProt P01111); assay: Binding to NRAS by surface plasmon resonance (SPR), Single Cycle Kinetics; conditions: for NRAS/KRAS (ratio of KD value for NRAS to KD value for KRAS) / ratio of the KD value with respect to GDP-bound NRAS wild-type protein to the KD value with respect to KRAS: SPR; for NRAS/KRAS (ratio of KD value for NRAS to KD value for KRAS): GDP-bound NRAS wild-type protein vs GDP-bound KRAS wild-type protein
[3] = biological target: GDP-bound HRAS wild-type protein (Homo sapiens, UniProt P01112); assay: Binding to HRAS by surface plasmon resonance (SPR), Single Cycle Kinetics; conditions: for HRAS/KRAS (ratio of KD value for HRAS to KD value for KRAS) / ratio of the KD value with respect to GDP-bound HRAS wild-type protein to the KD value with respect to KRAS: SPR; for HRAS/KRAS (ratio of KD value for HRAS to KD value for KRAS): GDP-bound HRAS wild-type protein vs GDP-bound KRAS wild-type protein
[4] = test system: human lung cancer strain NCI-H441;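 further: cell proliferation inhibition after four days measured by CellTiter-Glo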
[5] = SPR, Single Cycle Kinetics, 1:1 binding model
[6] = read-out: NCI-H441 cell proliferation inhibitory activity, 50% proliferation inhibitory concentration (IC50 value), NCI-H441, four days, CellTiter-Glo
[7] = SPR Single Cycle Kinetics, 1:1 binding model

Sequence of GDP-bound NRAS wild-type protein (P01111 whole entry): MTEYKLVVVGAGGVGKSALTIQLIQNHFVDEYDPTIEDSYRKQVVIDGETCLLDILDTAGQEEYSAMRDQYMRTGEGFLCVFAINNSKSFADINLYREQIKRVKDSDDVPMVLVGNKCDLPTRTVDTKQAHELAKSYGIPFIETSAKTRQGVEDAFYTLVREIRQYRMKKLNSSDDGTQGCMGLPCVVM
Sequence of GDP-bound HRAS wild-type protein (P01112 whole entry): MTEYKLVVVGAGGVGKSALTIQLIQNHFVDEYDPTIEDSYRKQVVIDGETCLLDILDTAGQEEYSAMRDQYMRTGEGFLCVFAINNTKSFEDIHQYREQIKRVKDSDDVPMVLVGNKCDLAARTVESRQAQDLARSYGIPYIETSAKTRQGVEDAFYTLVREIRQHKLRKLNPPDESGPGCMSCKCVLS
Sequence of GDP-bound KRAS wild-type protein (P01116 whole entry): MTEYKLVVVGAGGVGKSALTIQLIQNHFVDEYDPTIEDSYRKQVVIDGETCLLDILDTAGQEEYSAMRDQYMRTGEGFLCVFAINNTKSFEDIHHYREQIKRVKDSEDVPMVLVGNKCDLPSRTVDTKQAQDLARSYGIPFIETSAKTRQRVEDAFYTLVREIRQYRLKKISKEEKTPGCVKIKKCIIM

SMILES | Kd [1, 5] [nM] | IC50 [4] [nM] | Kd ([1]; SPR, Single Cycle Kinetics) [nM] | NRAS/KRAS (ratio of KD value for NRAS to KD value for KRAS) ([2]; KD ratio class) | HRAS/KRAS (ratio of KD value for HRAS to KD value for KRAS) ([3]; KD ratio class) | NRAS/KRAS (ratio of KD value for NRAS to KD value for KRAS) [2] | HRAS/KRAS (ratio of KD value for HRAS to KD value for KRAS) [3] | further results
CCO[C@@H]1C[C@H]2C(=O)NC3(CCC3)C(=O)N(C)[C@@H](C3CCCC3)C(=O)N(C)[C@H](C(=O)N(C)C)CC(=O)N(C)[C@@H](CC3CC3)C(=O)N[C@@H]([C@@H](C)CC)C(=O)NCC(=O)N(C)[C@H]3C/C=C\CCN(C3=O)[C@@H](Cc3ccc(C(F)(F)F)cc3)C(=O)N(C)CC(=O)N[C@@H](CCc3cc(F)c(C(F)(F)F)c(F)c3)C(=O)N2C1 [PP1406, (2S,8S,12R,14S,20S,23S,27S,30S,36S,38Z)-20-cyclopentyl-27-(cyclopropylmethyl)-8-[2-[3,5-difluoro-4-(trifluoromethyl)phenyl]ethyl]-12-ethoxy-N,N,4,19,22,26,35-heptamethyl-30-[(1S)-1-methylpropyl]-3,6,9,15,18,21,25,28,31,34,42-undecaoxo-2-[[4-(trifluoromethyl)phenyl]methyl]spiro[1,4,7,10,16,19,22,26,29,32,35-undecazatricyclo[34.5.1.0^10,14]dotetracont-38-ene-17,1′-cyclobutane]-23-carboxamide] | 0.072 | 10.9 |  | A (a compound having 10 or more and less than 20 is denoted as A) | B (a compound having 3 or more and less than 10 is denoted as B) |  |  | 
CC[C@H](C)[C@@H]1NC(=O)[C@H](CC)N(C)C(=O)C[C@@H](C(=O)N(C)C)N(C)C(=O)[C@H](C2CCCC2)N(C)C(=O)C2(CCC2)NC(=O)[C@@H]2C[C@@H](C(F)(F)F)CN2C(=O)[C@H](CCc2cc(F)c(C(F)(F)F)c(F)c2)NC(=O)CN(C)C(=O)[C@H](CC2CCCCC2)N2CC/C=C\C[C@@H](C2=O)N(C)C(=O)CN(C)C1=O [PP1465] | 0.36 | 34.1 |  | A (a compound having 10 or more and less than 20 is denoted as A) | A (a compound having 10 or more and less than 20 is denoted as A) |  |  | 
CCO[C@@H]1C[C@H]2C(=O)NC3(CC(C)(C)C3)C(=O)N(C)[C@@H](C3CCCC3)C(=O)N(C)[C@H](C(=O)N(C)C)CC(=O)N(C)[C@H]3CCCCCc4ccc(cc4)C[C@@H](C(=O)N(C)CC(=O)N[C@@H](CCc4ccc(C(F)(F)F)c(OC)c4)C(=O)N2C1)N1CC/C=C\C[C@@H](C1=O)N(C)C(=O)CN(C1CC1)C(=O)[C@H]([C@@H](C)CC)NC3=O [PP3075] |  |  | 0.076 |  |  | A (a compound having 10 or more and less than 20 is denoted as A) | A (a compound having 10 or more and less than 20 is denoted as A) | ratio of the KD value with respect to GDP-bound NRAS wild-type protein to the KD value with respect to KRAS [2]: A (a compound having 10 or more and less than 20 is denoted as A); ratio of the KD value with respect to GDP-bound HRAS wild-type protein to the KD value with respect to KRAS [3]: A (a compound having 10 or more and less than 20 is denoted as A); IC50 [4, 6]: 1.1 nM
CCC[C@H]1C(=O)N[C@@H]([C@@H](C)CC)C(=O)N(C)CC(=O)N(C)[C@H]2C/C=C\CCN(C2=O)[C@@H](Cc2ccc(C(F)(F)F)cc2)C(=O)N(C)CC(=O)N[C@@H](CCc2cc(F)c(C(F)(F)F)c(F)c2)C(=O)N2C[C@H](OCC)C[C@H]2C(=O)NC2(CCC2)C(=O)N(C)[C@@H](C2CCCC2)C(=O)N(C)[C@H](C(=O)N2CCOCC2)CC(=O)N1C [PP1288] | 0.18 | 22.2 |  | AA (a compound having 20 or more is denoted as AA) | A (a compound having 10 or more and less than 20 is denoted as A) |  |  | 
CCO[C@@H]1C[C@H]2C(=O)NC3(CCC3)C(=O)N(C)[C@@H](C3CCCC3)C(=O)N(C)[C@H](C(=O)N(C)C)CC(=O)N(C)[C@@H](CC)C(=O)N[C@@H]([C@@H](C)CC)C(=O)N(C)CC(=O)N(C)[C@H]3C/C=C\CCN(C3=O)[C@@H](CC3CCCCC3)C(=O)N(C)CC(=O)N[C@@H](CCc3cc(F)c(C(F)(F)F)c(F)c3)C(=O)N2C1 [PP1466, (2S,8S,12R,14S,20S,23S,27S,30S,36S,38Z)-2-(cyclohexylmethyl)-20-cyclopentyl-8-[2-[3,5-difluoro-4-(trifluoromethyl)phenyl]ethyl]-12-ethoxy-27-ethyl-N,N,4,19,22,26,32,35-octamethyl-30-[(1S)-1-methylpropyl]-3,6,9,15,18,21,25,28,31,34,42-undecaoxo-spiro[1,4,7,10,16,19,22,26,29,32,35-undecazatricyclo[34.5.1.0^10,14]dotetracont-38-ene-17,1′-cyclobutane]-23-carboxamide] | 0.14 | 33.2 |  | A (a compound having 10 or more and less than 20 is denoted as A) | A (a compound having 10 or more and less than 20 is denoted as A) |  |  | 
CC[C@H](C)[C@@H]1NC(=O)[C@@H]2CCCCc3ccc(cc3)C[C@@H](C(=O)N(C)CC(=O)N[C@@H](CCc3ccc(C(F)(F)F)c(OC)c3)C(=O)N3C[C@H](OC4CCCC4)C[C@H]3C(=O)NC3(CC(C)(C)C3)C(=O)N(C)[C@@H](C3CCCC3)C(=O)N(C)[C@H](C(=O)N(C)C)CC(=O)N2C)N2CC/C=C\C[C@@H](C2=O)N(C)C(=O)CN(C)C1=O [PP3080] |  |  | 0.037 |  |  | A (a compound having 10 or more and less than 20 is denoted as A) | B (a compound having 3 or more and less than 10 is denoted as B) | ratio of the KD value with respect to GDP-bound NRAS wild-type protein to the KD value with respect to KRAS [2]: A (a compound having 10 or more and less than 20 is denoted as A); ratio of the KD value with respect to GDP-bound HRAS wild-type protein to the KD value with respect to KRAS [3]: B (a compound having 3 or more and less than 10 is denoted as B); IC50 [4, 6]: 4.3 nM
CCCOC[C@H]1C(=O)N[C@@H]([C@@H](C)CC)C(=O)N(C)CC(=O)N(C)[C@H]2C/C=C\CCN(C2=O)[C@@H](Cc2ccc(C)cc2)C(=O)N(C)CC(=O)N[C@@H](CCc2ccc(C(F)(F)F)c(Cl)c2)C(=O)N2C[C@@H](C)C[C@H]2C(=O)NC2(CC(C)(C)C2)C(=O)N(C)[C@@H](C2CCCC2)C(=O)N(C)[C@H](C(=O)N(C)CC)CC(=O)N1C [PP2467] |  | 21.8 | 0.26 |  |  | A (a compound having 10 or more and less than 20 is denoted as A) | B (a compound having 3 or more and less than 10 is denoted as B) | 
CCOC[C@H]1C(=O)N[C@@H]([C@@H](C)CC)C(=O)N(C)CC(=O)N(C)[C@H]2C/C=C\CCN(C2=O)[C@@H](CC2CCCCC2)C(=O)N(C)CC(=O)N[C@@H](CCc2ccc(C(F)(F)F)c(Cl)c2)C(=O)N2C[C@H](OCC)C[C@H]2C(=O)NC2(CC(C)(C)C2)C(=O)N(C)[C@@H](C(CC)CC)C(=O)N(C)[C@H](C(=O)N(C)C)CC(=O)N1C [PP2488] |  | 171 | 1.6 |  |  | A (a compound having 10 or more and less than 20 is denoted as A) | A (a compound having 10 or more and less than 20 is denoted as A) | 

Further molecules by falling IC50 [4], results first:

Kd [1, 5] [nM] | IC50 [4] [nM] | Kd ([1]; SPR, Single Cycle Kinetics) [nM] | SMILES | NRAS/KRAS (ratio of KD value for NRAS to KD value for KRAS) ([2]; KD ratio class) | HRAS/KRAS (ratio of KD value for HRAS to KD value for KRAS) ([3]; KD ratio class) | NRAS/KRAS (ratio of KD value for NRAS to KD value for KRAS) [2] | HRAS/KRAS (ratio of KD value for HRAS to KD value for KRAS) [3] | further results
 | 8.5 |  | CCC[C@H]1C(=O)N[C@@H]([C@@H](C)CC)C(=O)N(C)CC(=O)N(C)[C@H]2C/C=C\CCN(C2=O)[C@@H](Cc2ccc(C(F)(F)F)cc2)C(=O)N(C)CC(=O)N[C@@H](CCc2ccc(Cl)c(Cl)c2)C(=O)N2C[C@H](OCC)C[C@H]2C(=O)NC2(CC(C)(C)C2)C(=O)N(C)[C@@H](CC(C)(C)C)C(=O)N(C)[C@H](C(=O)N(C)C)CC(=O)N1C [PP2738] |  |  |  |  | Kd [1, 7]: 0.17 nM; NRAS/KRAS (ratio of KD value with respect to GDP-bound NRAS wild-type protein to KD value with respect to KRAS) ([2]; SPR KD ratio NRAS/KRAS, class symbols): AA (a compound having 20 or more is denoted as AA); HRAS/KRAS (ratio of KD value with respect to GDP-bound HRAS wild-type protein to KD value with respect to KRAS) ([3]; SPR KD ratio HRAS/KRAS, class symbols): A (a compound having 10 or more and less than 20 is denoted as A)
 | 5.2 |  | CCCN1C(=O)CN(C)C(=O)CN(C)C(=O)[C@H]([C@@H](C)CC)NC(=O)[C@H](CC(C)C)N(C)C(=O)C[C@@H](C(=O)N2CCCC2)N(C)C(=O)[C@H](C2CCCC2)N(C)C(=O)C2(CCCC2)NC(=O)[C@@H]2CCCN2C(=O)[C@H](CCc2ccc(C(F)(F)F)c(Cl)c2)NC(=O)CN(C)C(=O)[C@@H]1Cc1ccc(C(F)(F)F)cc1 [PP0170] ([NMeL]I[Sar][Sar][NPrPhe(4-CF3)][Sar][hPhe(3-Cl-4-CF3)]P[Ac5c][NMeGly(cPent)][NMeD]-Pyrrolidide; lactam N-11) |  |  | B (a compound having 3 or more and less than 10 is denoted as B) | B (a compound having 3 or more and less than 10 is denoted as B) | Kd [1, 7]: 0.12 nM
 | 4.1 | 0.045 | CCC[C@H]1C(=O)N[C@@H]([C@@H](C)CC)C(=O)N2CCC[C@H]2C(=O)N(C)[C@H]2C/C=C\CCN(C2=O)[C@@H](Cc2ccc(C)cc2)C(=O)N(C)CC(=O)N[C@@H](CCc2ccc(C(F)(F)F)c(OC)c2)C(=O)N2C[C@@H](C)C[C@H]2C(=O)N(C)C2(CCC2)C(=O)N(C)[C@@H](C2CCCC2)C(=O)N(C)[C@H](C(=O)N(C)C)CC(=O)N1C [PP2368] |  |  | A (a compound having 10 or more and less than 20 is denoted as A) | A (a compound having 10 or more and less than 20 is denoted as A) | 
